Experimental data published in publication PMC8000592, “Discovery and Optimization of Selective Inhibitors of Meprin α (Part I)” (Pharmaceuticals, 2021).
Where two headings read alike, the source gives them in different places.

Tests used:
Format in all cases: biochemical
meprin α = target: T1, meprin α (Homo sapiens, UniProt Q16819); assay: Meprin α assay, fluorogenic substrate (Mca)-YVADAPK-(K-ε-Dnp), 384 and 1536 well plate formats; conditions: for selectivity for meprin α: versus meprin β, in words
T1 sequence (Q16819 66-593 limits assumed): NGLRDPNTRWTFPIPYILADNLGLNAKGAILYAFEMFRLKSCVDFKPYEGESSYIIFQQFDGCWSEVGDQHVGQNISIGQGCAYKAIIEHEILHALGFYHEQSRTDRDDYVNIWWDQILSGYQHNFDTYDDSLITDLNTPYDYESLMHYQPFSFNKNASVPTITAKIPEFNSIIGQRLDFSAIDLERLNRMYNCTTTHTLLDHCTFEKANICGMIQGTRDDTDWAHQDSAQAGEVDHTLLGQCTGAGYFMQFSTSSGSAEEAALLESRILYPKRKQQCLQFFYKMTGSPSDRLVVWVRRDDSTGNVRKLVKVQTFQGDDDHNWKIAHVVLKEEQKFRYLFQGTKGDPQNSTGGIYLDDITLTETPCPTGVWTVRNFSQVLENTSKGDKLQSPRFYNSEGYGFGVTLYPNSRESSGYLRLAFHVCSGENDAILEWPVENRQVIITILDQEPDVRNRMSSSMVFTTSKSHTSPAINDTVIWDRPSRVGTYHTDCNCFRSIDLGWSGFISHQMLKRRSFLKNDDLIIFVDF
Source text: The meprin α and meprin β assays, which utilize the substrates (Mca)-YVADAPK-(K-ε-Dnp) and (Mca)-EDEDED-(K-ε-Dnp), respectively, have been described previously. To enable an ultra-high-throughput screening (uHTS) campaign, we proceeded to miniaturize both assays to 1536 well plate format (wpf). First, we recapitulated the assays in 1536 well plate using reagents at the same concentrations as in 384 well plate format assays by scaling the volume down by the factor of 2.5.
Both assays followed the same general protocol. A 5 µL measure of 2 × enzyme solution (2.6 and 0.1 nM for meprin α and meprin β, respectively) in assay buffer (50 mM Hepes, 0.01% Brij-35, pH 7.5) was added to solid bottom black 384 low volume plates (Nunc, cat# 264705). Next, 75 nL of test compounds or pharmacological control (actinonin or NFF449) were added to corresponding wells using a 384-pin tool device (V&P Scientific, San Diego, CA, USA). After 30 min incubation at RT, the reactions were started by addition of 5 µL of 2 × solutions of substrates (20 µM, mepin α substrate Mca-YVADAPK-K(Dnp) or meprin β substrate Mca-EDEDED-K(Dnp)). Reactions were incubated at RT for 1 h, after which the fluorescence was measured using the Synergy H4 multimode microplate reader (Biotek Instruments) (λexcitation = 324 nm, λemission = 390 nm).
Both assays followed the same general protocol. A 2 µL portion of 2 × enzyme solution (1.3 and 0.0125 nM for meprin α and meprin β, respectively) in assay buffer (50 mM Hepes, 0.01% Brij-35, pH 7.5) was added to solid bottom black 1536 low volume plates (Corning cat# 7261). Next, 30 nL of test compounds or pharmacological control (actinonin or NFF449) was added to corresponding wells using a 1536 pin tool device (V&P Scientific, San Diego). After 30 min incubation at RT, the reactions were started by addition of 2 µL of 2x solutions of substrates (20 µM, meprin α substrate Mca-YVADAPK-K(Dnp) or meprin β substrate Mca-EDEDED-K(Dnp)). Reactions were incubated at RT for 1 h, after which the fluorescence was measured using the Viewlux multimode microplate reader (Perkin Elmer) (λexcitation = 324 nm, λemission = 390 nm).
The miniaturized 1536-well plate format meprin α and meprin β assays were used to screen a collection of approximately 650,000 compounds (The Scripps Research library, La Jolla, CA, USA) on the automated Kalypsys/GNF platform at The Scripps Research Molecular Screening Center (SRMSC, Jupiter, FL, USA: http://hts.florida.scripps.edu/). Both uHTS campaigns were run separately but in a similar manner. Briefly, the first step was the primary screen of all test compounds as singlicates against the meprin α and meprin β target at a final concentration of 7.0 μM. Next, compounds selected as primary hits were cherry-picked and retested in triplicate against the primary screen target and its antitarget (meprin α for the meprin β screening effort, and vice versa) at a same final concentration of 7.0 μM. The additional counter screen assays against related metzincins (MMP-8, MMP-14, and ADAM10) were performed in triplicate at a final concentration of 7.0 μM. The final step was the titration of selected hits as 10-point, 1:3 serial dilutions in both the target and antitarget assay, starting at a final nominal concentration of 17 μM. […] Wells treated with DMSO only were used as negative controls and 0% inhibition reference. […] All data generated during this effort were uploaded to the SRMSC’s institutional screening database (Assay Explorer, Symyx). Sample to background (S/B) ratios, as well as Z and Z’ values, were calculated on a per plate basis as described 14. Curve fitting and resulting IC50 determinations were performed as previously reported.

MMP10 = target: T2, MMP10 (Homo sapiens, UniProt P09238); assay: MMP assay (Mca-KPLGL-Dpa-AR-NH2 substrate); conditions: triplicate, 10-point, 3:1 serial dilution, highest concentration 17.4 µM
T2 construct: purchased R&D Systems 910-MP
T2 sequence (P09238 99-476): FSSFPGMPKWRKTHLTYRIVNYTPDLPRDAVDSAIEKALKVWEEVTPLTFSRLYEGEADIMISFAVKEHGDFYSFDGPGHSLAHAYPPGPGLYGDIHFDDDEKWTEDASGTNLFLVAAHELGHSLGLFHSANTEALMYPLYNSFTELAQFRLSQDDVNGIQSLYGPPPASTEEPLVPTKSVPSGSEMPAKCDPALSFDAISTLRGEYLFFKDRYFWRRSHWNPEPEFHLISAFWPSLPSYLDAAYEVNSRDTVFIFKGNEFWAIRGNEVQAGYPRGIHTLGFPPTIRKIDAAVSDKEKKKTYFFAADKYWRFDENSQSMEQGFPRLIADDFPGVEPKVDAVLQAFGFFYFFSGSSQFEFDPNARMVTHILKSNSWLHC
Procedure: (§1) In addition to meprins, we also tested 64 hits against related metzincins (MMP-2, MMP-3, MMP-8, MMP-9, MMP-10, MMP-14, ADAM10, and ADAM17) to ascertain general nonpromiscuity against zinc-dependent proteases.
(§2) All assays followed the same general protocol. […] After 30 min incubation at RT, the reactions were started by addition of 5 µL of 2x solutions of substrate (R&D Systems cat#: ES010, Mca-KPLGL-Dpa-AR-NH2, 20 µM). Reactions were incubated at RT for 1 h, after which the fluorescence was measured using the Synergy H4 multimode microplate reader (Biotek Instruments) (λexcitation = 324 nm, λemission = 390 nm).

MMP14 = target: T3, MMP14 (Homo sapiens, UniProt P50281); assay: MMP assay (Mca-KPLGL-Dpa-AR-NH2 substrate); conditions: triplicate, 10-point, 3:1 serial dilution, highest concentration 17.4 µM
T3 construct: purchased R&D Systems 918-MP
Procedure: as §1, §2

MMP8 = target: T4, MMP8 (Homo sapiens, UniProt P22894); assay: MMP assay (Mca-KPLGL-Dpa-AR-NH2 substrate); conditions: triplicate, 10-point, 3:1 serial dilution, highest concentration 17.4 µM
T4 construct: purchased R&D Systems 908-MP
T4 sequence (P22894 101-467): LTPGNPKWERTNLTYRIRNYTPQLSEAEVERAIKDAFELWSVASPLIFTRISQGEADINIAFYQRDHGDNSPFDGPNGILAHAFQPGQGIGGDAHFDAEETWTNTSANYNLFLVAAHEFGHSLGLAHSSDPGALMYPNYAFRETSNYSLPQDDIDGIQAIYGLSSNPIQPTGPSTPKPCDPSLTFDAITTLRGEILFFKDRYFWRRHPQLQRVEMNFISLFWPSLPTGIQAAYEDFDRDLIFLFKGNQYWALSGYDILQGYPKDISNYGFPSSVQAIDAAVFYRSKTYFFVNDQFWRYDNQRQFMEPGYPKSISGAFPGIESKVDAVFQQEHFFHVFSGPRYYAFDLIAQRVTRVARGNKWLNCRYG
Procedure: as §1, §2

[1] = triplicate, 10-point, 3:1 serial dilution, highest concentration 17.4 µM, read-out: Meprin α IC50

SMILES | IC50 (meprin α; [1]) | IC50 (MMP10) | IC50 (MMP14) | IC50 (MMP8) | selectivity for meprin α (meprin α) | selectivity against meprin β and other tested metzincins (meprin α) | Meprin α IC50 (meprin α; triplicate, 10-point, 3:1 serial dilution, highest concentration 17.4 µM) | Selectivity Fold (meprin α; meprin α versus meprin β) | IC50 (meprin α) | IC50 (meprin α; Meprin α 384 wpf, read-out: IC50) | IC50 (meprin α; Meprin α 1536 wpf, read-out: IC50)
O=C(CSc1nnc(NC(=O)c2ccccc2)s1)NO [Compound 19847] | 0.892 µM | > 17 µM | > 17 µM | > 17 µM | – | – | – | – | – | – | –
O=C(CSc1nnc(NC(=O)COc2ccccc2)s1)NO [Compound 19848] | 0.335 µM | > 17 µM | > 17 µM | > 17 µM | – | – | – | – | – | – | –
COc1cc(OC)cc(C(=O)CNc2nnc(SCC(=O)NO)s2)c1 [Compound 19849] | 0.218 µM | > 17 µM | > 17 µM | > 17 µM | – | – | – | – | – | – | –
COc1ccc(-n2c(CSc3ncccn3)nnc2SCC(=O)NO)cc1 [Compound 19855] | – | > 17 µM | > 17 µM | > 17 µM | show selectivity for meprin α | – | – | – | – | – | –
O=C(CCN(Cc1cccs1)S(=O)(=O)c1ccc([N+](=O)[O-])cc1)NO [Compound 162799] | 0.564 µM | > 17 µM | > 17 µM | > 17 µM | show selectivity for meprin α | > 30 fold | sub-micromolar | – | – | – | –
O=C(CCN(Cc1ccccc1)S(=O)(=O)c1ccc(F)cc1)NO [Compound 162808] | 0.446 µM | > 17 µM | > 17 µM | > 17 µM | show selectivity for meprin α | > 30 fold | – | 38 fold | – | – | –
O=C(COc1ccc(Cl)cc1Cl)NO [Compound 1596857] | – | > 17 µM | > 17 µM | > 17 µM | – | – | – | – | 1.18 µM | – | –
O=C(Nc1cc(C(=O)Nc2ccc(S(=O)(=O)O)cc2S(=O)(=O)O)cc(C(=O)Nc2ccc(S(=O)(=O)O)cc2S(=O)(=O)O)c1)Nc1cc(C(=O)Nc2ccc(S(=O)(=O)O)cc2S(=O)(=O)O)cc(C(=O)Nc2ccc(S(=O)(=O)O)cc2S(=O)(=O)O)c1 [NFF449] | – | – | – | – | – | – | – | – | – | > 100 µM | > 100 µM
O=[N+]([O-])c1ccc(CN2CCC3(CCc4ccccc43)CC2)o1 [SR207820] | > 17 µM | > 17 µM | > 17 µM | > 17 µM | – | – | – | – | – | – | –
O=C(c1ccc(C(=O)O)c([N+](=O)[O-])c1)c1ccc(C(=O)O)c([N+](=O)[O-])c1 [SR355996] | > 17 µM | > 17 µM | > 17 µM | > 17 µM | – | – | – | – | – | – | –
CSc1nnc2c(n1)OC(c1ccc([N+](=O)[O-])o1)Nc1ccccc1-2 (stereo not drawn) [SR412882] | > 17 µM | 9.7 µM | 10.5 µM | > 17 µM | – | – | – | – | – | – | –
